Test results published in patent US6835748B2, “Treatment of ocular disorders” (priority 1999, dated 2004).

Assays:
Type in all cases: in vivo, rabbit
[1] = system: normotensive adult rabbits; test: IOP measurement (TonoPen XL) after a single topical 50-μL drop in rabbits
Method: (§1) Male and female adult brown burgundy rabbits (2.6-4.4 kg) are used in this study. Animals are kept in individual cages under well-defined and standardized conditions (humidity and temperature controlled room, 13 h light/11 h dark cycle) with standard dry food and water ad libitum. All animals are accustomed to the procedure of IOP measurement but only those animals that have stable records are included in the study. All experiments are conducted in accordance with the ARVO resolution for the use of animals in ophthalmic and vision research and are approved by the Federal and Local Ethical and Agricultural Committees.
(§2) Solutions of a test drug are freshly prepared before each experiment by dissolution in sterile balanced salt solution (BSS) (Alcon Pharmaceuticals Ltd, Forth Worth, Tex., USA) at the required concentrations under sterile conditions. One 50-μL drop of the test solution is applied topically to the right eye whereas the contralateral eye receives the carrier BSS only.
IOP is measured with a TonoPen XL (Mentor, Norvel, Mass.), the device being calibrated daily according to the manufacturer's instructions. […] Corneas are anaesthetized by topical application of a 50-μL drop of 0.2% Novocaine prior to each IOP measurement.
Measurements are always initiated at the same time (8 a.m.), a sufficient recovery period of at least 7 days is provided for the animals between the experiments. Control readings are taken 10 minutes before instillation of the test drug to the right eye and of the vehicle to the left one. IOP is recorded at 1-hour intervals for the ensuing 8 hours. Baseline measurements are likewise performed hourly in all animals prior to treatment, for monitoring of diurnal rhythms. (9)
Data are analyzed according to the Mann-Whitney U-test. IOP values recorded before and after application of Rivastigmine or the drug vehicle are compared in the same eye, differences with a first order error of P<0.05 being considered as statistically significant.

[2] = system: normotensive adult rabbits; test: Pupil diameter measurement; conditions: topical 1%, 2%, 5% solutions
Method: as §1, §2
Pupil diameter is measured horizontally in both eyes using a pupil gauge closely applied to the cornea under diffuse illumination conditions.

[3] = system: normotensive adult rabbits; test: Slit-lamp examination (local tolerability); conditions: topical 1%, 2%, 5% solutions; before and 4 and 8 hours after administration
Method: as §1, §2
Slit-lamp biomicroscopy is performed by a trained ophthalmologist before drug administration and 4 and 8 hours thereafter. Eyes are controlled for conjunctival redness and discharge, for integrity of the corneal epithelium and for the absence or presence of flare (protein in the anterior chamber being an indication of blood aqueous barrier breakdown).

## CCN(C)C(=O)Oc1cccc(C(C)N(C)C)c1 (centres unmarked) [Rivastigmine]
[1]; 1% solution
  Time of maximal mean decrease in IOP, treated eye: 5 h
[1]; 1% solution (longest effect)
  Duration of significant IOP-lowering effect, treated eyes: 5 h
[1]; 1% solution applied to contralateral right eye, n=8, time 0 hrs (control reading before instillation)
  IOP, left eye (untreated, vehicle): 12.0 mm
[1]; 1% solution to contralateral eye
  Time of maximal mean decrease in IOP, untreated eye: 4 h
[1]; 1% solution to contralateral eye, time 1 hrs
  IOP, left eye (untreated, vehicle): 11.6 mm
[1]; 1% solution to contralateral eye, time 2 hrs
  IOP, left eye (untreated, vehicle): 11.2 mm
[1]; 1% solution to contralateral eye, time 3 hrs
  IOP, left eye (untreated, vehicle): 11.1 mm
[1]; 1% solution to contralateral eye, time 4 hrs
  IOP, left eye (untreated, vehicle): 10.2 mm
[1]; 1% solution to contralateral eye, time 5 hrs
  IOP, left eye (untreated, vehicle): 11.0 mm
[1]; 1% solution to contralateral eye, time 6 hrs
  IOP, left eye (untreated, vehicle): 10.7 mm
[1]; 1% solution to contralateral eye, time 7 hrs
  IOP, left eye (untreated, vehicle): 11.1 mm
[1]; 1% solution to contralateral eye, time 8 hrs
  IOP, left eye (untreated, vehicle): 11.4 mm
[1]; 1% solution, 50-μL drop topical, n=8, time 0 hrs (control reading before instillation)
  IOP, right eye (treated): 12.3 mm
[1]; 1% solution, 5 hours after application
  Maximal mean decrease in IOP, treated eye: 2.6±1.2 mm Hg
[1]; 1% solution, time 1 hrs
  IOP, right eye (treated): 12.0 mm
[1]; 1% solution, time 2 hrs
  IOP, right eye (treated): 11.2 mm
[1]; 1% solution, time 3 hrs
  IOP, right eye (treated): 10.8 mm
[1]; 1% solution, time 4 hrs
  IOP, right eye (treated): 10.5 mm
[1]; 1% solution, time 5 hrs
  IOP, right eye (treated): 10.1 mm
[1]; 1% solution, time 6 hrs
  IOP, right eye (treated): 11.1 mm
[1]; 1% solution, time 7 hrs
  IOP, right eye (treated): 11.5 mm
[1]; 1% solution, time 8 hrs
  IOP, right eye (treated): 11.6 mm
[1]; 2% solution
  Time of maximal mean decrease in IOP, treated eye: 3 h
[1]; 2% solution applied to contralateral right eye, n=4, time 0 hrs (control reading before instillation)
  IOP, left eye (untreated, vehicle): 11.2 mm
[1]; 2% solution to contralateral eye
  Time of maximal mean decrease in IOP, untreated eye: 3 h
[1]; 2% solution to contralateral eye, time 1 hrs
  IOP, left eye (untreated, vehicle): 11.9 mm
[1]; 2% solution to contralateral eye, time 2 hrs
  IOP, left eye (untreated, vehicle): 11.2 mm
[1]; 2% solution to contralateral eye, time 3 hrs
  IOP, left eye (untreated, vehicle): 10.2 mm
[1]; 2% solution to contralateral eye, time 4 hrs
  IOP, left eye (untreated, vehicle): 12.3 mm
[1]; 2% solution to contralateral eye, time 5 hrs
  IOP, left eye (untreated, vehicle): 11.5 mm
[1]; 2% solution to contralateral eye, time 6 hrs
  IOP, left eye (untreated, vehicle): 11.2 mm
[1]; 2% solution to contralateral eye, time 7 hrs
  IOP, left eye (untreated, vehicle): 11.0 mm
[1]; 2% solution to contralateral eye, time 8 hrs
  IOP, left eye (untreated, vehicle): 13.0 mm
[1]; 2% solution, 50-μL drop topical, n=4, time 0 hrs (control reading before instillation)
  IOP, right eye (treated): 11.5 mm
[1]; 2% solution, 3 hours after application
  Maximal mean decrease in IOP, treated eye: 2.2±0.8 mm Hg
[1]; 2% solution, time 1 hrs
  IOP, right eye (treated): 11.5 mm
[1]; 2% solution, time 2 hrs
  IOP, right eye (treated): 11.0 mm
[1]; 2% solution, time 3 hrs
  IOP, right eye (treated): 9.2 mm
[1]; 2% solution, time 4 hrs
  IOP, right eye (treated): 10.8 mm
[1]; 2% solution, time 5 hrs
  IOP, right eye (treated): 11.5 mm
[1]; 2% solution, time 6 hrs
  IOP, right eye (treated): 11.1 mm
[1]; 2% solution, time 7 hrs
  IOP, right eye (treated): 10.8 mm
[1]; 2% solution, time 8 hrs
  IOP, right eye (treated): 12.0 mm
[1]; 5% solution
  Time of maximal mean decrease in IOP, treated eye: 1 h
[1]; 5% solution applied to contralateral right eye, n=6, time 0 hrs (control reading before instillation)
  IOP, left eye (untreated, vehicle): 13.4 mm
[1]; 5% solution to contralateral eye
  Time of maximal mean decrease in IOP, untreated eye: 1 h
[1]; 5% solution to contralateral eye, time 1 hrs
  IOP, left eye (untreated, vehicle): 10.7 mm
[1]; 5% solution to contralateral eye, time 2 hrs
  IOP, left eye (untreated, vehicle): 11.5 mm
[1]; 5% solution to contralateral eye, time 3 hrs
  IOP, left eye (untreated, vehicle): 11.3 mm
[1]; 5% solution to contralateral eye, time 4 hrs
  IOP, left eye (untreated, vehicle): 11.9 mm
[1]; 5% solution to contralateral eye, time 5 hrs
  IOP, left eye (untreated, vehicle): 13.2 mm
[1]; 5% solution to contralateral eye, time 6 hrs
  IOP, left eye (untreated, vehicle): 12.5 mm
[1]; 5% solution to contralateral eye, time 7 hrs
  IOP, left eye (untreated, vehicle): 13.3 mm
[1]; 5% solution to contralateral eye, time 8 hrs
  IOP, left eye (untreated, vehicle): 13.0 mm
[1]; 5% solution to contralateral eye, P<0.05, Mann-Whitney U-test
  Significance of IOP decrease in untreated eyes: significant
[1]; 5% solution, 50-μL drop topical, n=6, time 0 hrs (control reading before instillation)
  IOP, right eye (treated): 13.7 mm
[1]; 5% solution, 1 hour after application
  Maximal mean decrease in IOP, treated eye: 3.5±1.2 mm Hg
[1]; 5% solution, time 1 hrs
  IOP, right eye (treated): 10.0 mm
[1]; 5% solution, time 2 hrs
  IOP, right eye (treated): 11.1 mm
[1]; 5% solution, time 3 hrs
  IOP, right eye (treated): 10.8 mm
[1]; 5% solution, time 4 hrs
  IOP, right eye (treated): 10.5 mm
[1]; 5% solution, time 5 hrs
  IOP, right eye (treated): 12.9 mm
[1]; 5% solution, time 6 hrs
  IOP, right eye (treated): 12.5 mm
[1]; 5% solution, time 7 hrs
  IOP, right eye (treated): 14.0 mm
[1]; 5% solution, time 8 hrs
  IOP, right eye (treated): 11.8 mm
[1]; topical 1%, 2%, 5% solutions
  IOP effect in the treated eye (in words): lowers the IOP significantiy
[2]
  Pupil reaction in drug-treated eyes: insignificant miotic pupil reaction
[3]
  Local toxicity (slit-lamp: redness, discharge, corneal epithelium, flare): No signs of rivastigmine-related local toxicity
